Results taken from the NIST ThermoML archive (doi:10.1021/je200813q).
Numbers after ± are expanded uncertainties.

Assay: mn = molality of the nth substance listed, in mol/kg
Conditions: 101.3 kPa, Liquid, Buoyancy - hydrostatic balance with magnetic suspension - one sinker

O=S(=O)([O-])[O-].[O]=[V+2] [oxovanadium(IV) sulfate] + O
mass density [kg/m3]
Conditions	283.15 K	293.15 K	298.15 K	303.15 K	313.15 K	323.15 K
m1 = 0.5	1074.6 ± 0.2	1072.5 ± 0.2	1070.7 ± 0.2	1068 ± 0.2	1065 ± 0.2	1060.4 ± 0.2
m1 = 0.8	1117.6 ± 0.3	1114.8 ± 0.3	1113 ± 0.3	1110.7 ± 0.3	1106.6 ± 0.3	1101.7 ± 0.3
m1 = 1	1144.9 ± 0.3	1141.9 ± 0.3	1139.8 ± 0.3	1137.6 ± 0.3	1133.3 ± 0.3	1128.4 ± 0.3
m1 = 1.2	1171.8 ± 0.3	1169.5 ± 0.3	1167.2 ± 0.3	1164.6 ± 0.3	1159.9 ± 0.3	1154.7 ± 0.3
m1 = 1.5	1211.3 ± 0.3	1207.8 ± 0.3	1205.3 ± 0.3	1202.7 ± 0.3	1198.3 ± 0.3	1192.4 ± 0.3
m1 = 1.8	1249.6 ± 0.4	1245.6 ± 0.3	1242.9 ± 0.3	1240.4 ± 0.3	1235.3 ± 0.3	1229.9 ± 0.3
m1 = 2	1274.1 ± 0.4	1270 ± 0.4	1267.4 ± 0.4	1264.7 ± 0.4	1259.6 ± 0.4	1253.9 ± 0.4
m1 = 2.2	1298.2 ± 0.4	1293.9 ± 0.4	1291.2 ± 0.4	1288.8 ± 0.4	1283.4 ± 0.4	1277.6 ± 0.4
m1 = 2.5	1333.7 ± 0.5	1329.3 ± 0.5	1326.5 ± 0.5	1323.9 ± 0.5	1318.5 ± 0.4	1312.7 ± 0.4
m1 = 2.8	1367.1 ± 0.5	1362.8 ± 0.5	1359.8 ± 0.5	1357.2 ± 0.5	1351.6 ± 0.5	1345.6 ± 0.5
m1 = 3	1389.5 ± 0.6	1384.6 ± 0.6	1381.3 ± 0.6	1378.8 ± 0.6	1373.4 ± 0.5	1367.5 ± 0.5
